From patent US20250333394A1, “Tiparp Inhibitor Compounds” (AbbVie Inc., priority 2024, published 2025)

Experiments:
IFNβ = assay: Tumor selective induction of IFNβ in MC-38 (Ker) syngeneic model; assay type: in vivo, mouse; details: 3 hours after last dose, PO once daily for 2 days
Protocol: The murine cell line MC-38 derived from C57BL/6 murine colon adenocarcinoma cells was obtained from Kerafast (Boston, MA, USA). A suspension of 2.5×10^5 cells in culture medium mixed with Matrigel® (Corning Life Sciences, Lowell, MA, USA; 1:1, volume:volume) was injected subcutaneously in the right hind flank of female C57BL/6 mice to generate tumor formation. Treatment started when the size of the flank tumors was approximately 500 mm^3. Vehicle and three different doses of Example 1 were administered once daily to each of four to five mice at each dose level for 2 days. Each administration consisted of a single 0.2 mL PO dose in a vehicle formulation (10% ethanol, 30% PEG300, and 60% PHOSAL® 50 PG).
Blood and tumors were collected 3 hours after the last dose. Blood was transferred to microfuge tubes containing E DTA, centrifuged at 2000×g for 8 minutes at 4° C., and the upper plasma layer was transferred to new tubes and frozen at −80° C. Tumors were weighed and 200 to 500 mg of tumor tissue was transferred to microfuge tubes, which were then centrifuged at 15000×g for 10 minutes at 4° C. The supernatant was transferred to a fresh 96 well plate. […] The concentration of IFNβ in the thawed plasma and tumor fluid was determined using a Milliplex MAP mouse IFNβ assay (EMD Millipore, Burlington, MA, USA).

NCI-H1373 cells = assay: NCI-H1373 CellTiter-Glo cell assay for TIPARP inhibition; assay type: cell-based, human; details: Homo sapiens, NCI-H1373, 144 h; 6 days, 100 nM 10-Cl-BBQ in medium; read-out: NCI-H1373 CTG EC50
Method in brief: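 NCI-H1373 cells (1000/well) grown in RPMI 1640 with 10% FBS and 100 nM 10-Cl-BBQ, exposed to compounds from 30 μM to 0.5 nM final in 3-fold steps for 6 days at 37° C. Cell number read on day 7 by CellTiter-Glo luminescence.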

DLD-1 parent cells = assay: CellTiter-Glo DLD-1 parent cell assay; assay type: cell-based; details: Homo sapiens, 144 h, 6 days, read-out: DLD-1 CTG EC50
Method in brief: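 DLD-1 parent (500 cells/well) and DLD-1 BRCA2 (−/−) (1200 cells/well) cells in RPMI 1640 with 10% FBS exposed to compounds at 30 μM to 0.5 nM (3-fold dilutions) for 6 days at 37° C. Viability read by CellTiter-Glo luminescence on day 7.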

Question: Which “induction of IFNβ in plasma” value (IFNβ; plasma) does the source give for `C[C@@H]1CN(c2ncc(C(F)(F)F)cn2)CCN1C(=O)[C@H]1C[C@@H](c2c[nH]c(=O)c(C(F)(F)F)c2)C1` [Example 1, 5-[(1S,3s)-3-{(2R)-2-methyl-4-[5-(trifluoromethyl)pyrimidin-2-yl]piperazine-1-carbonyl}cyclobutyl]-3-(trifluoromethyl)pyridin-2(1H)-one] here?
Answer: not in plasma

Question: And the “induction of IFNβ in tumors” value (IFNβ; tumor fluid)?
Answer: induced IFNβ in MC-38 (Ker) tumors compared to vehicle

Question: What about the EC50 (NCI-H1373 cells) of the same molecule?
Answer: 17.2 nM

Question: And the EC50 (DLD-1 parent cells)?
Answer: > 30000 nM
